In patent US11459339B2, “Biaryl derivative, preparation method thereof and pharmaceutical application thereof” (Abbisko Therapeutics Co., Ltd., priority 2018, dated 2022):

Assays:
[1] = target: interaction between PD-1 and PD-L1 expressed on cell surfaces (Homo sapiens (Human), UniProt Q9NZQ7); test: Jurkat reporter gene cellular assay (Jurkat/NF-κB-luc/PD1 cells cocultured with Raji-PD-L1 cells, OKT-3 stimulation); type: cell-based; conditions: NF-κB-luc reporter activation fold, 6 hrs; read-out: Cell Activity EC50
Chain of interaction between PD-1 and PD-L1 expressed on cell surfaces (Q9NZQ7 19-290): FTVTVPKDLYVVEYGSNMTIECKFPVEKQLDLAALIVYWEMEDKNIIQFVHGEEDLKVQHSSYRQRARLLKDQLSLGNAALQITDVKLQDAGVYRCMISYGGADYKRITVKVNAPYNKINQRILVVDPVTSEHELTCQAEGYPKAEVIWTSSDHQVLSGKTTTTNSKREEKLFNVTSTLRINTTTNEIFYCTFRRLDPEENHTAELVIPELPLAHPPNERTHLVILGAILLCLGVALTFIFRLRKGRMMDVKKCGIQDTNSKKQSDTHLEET
Description: B. Jurkat Reporter Gene Cellular Assay
The effect of compounds of the examples of the present invention and positive compounds on the interaction between PD-1 and PD-L1 expressed on cell surfaces, and the related influence on T cell functions, were determined by a Jurkat reporter gene cellular assay.
Briefly, the reporter gene plasmid of NF-κB-luc and the plasmid of human PD-1 were transfected into Jurkat cells to establish a stably transfected cell line capable of stably expressing both PD-1 and NF-κB-Luc reporter genes; the expression level of PD-1 on the cell surface was confirmed by flow cytometry: and the expression of the reporter gene was confirmed via the response of the reporter gene stimulated by OKT-3 and Raiji cells.
In addition, the plasmid of human PD-L1 was transfected into Raji cells to obtain a cell line capable of stably expressing PD-L1. Jurkat/NF-κB-luc/PD1 cells and Raji-PD-L1 cells were then cocultured and stimulated with OKT-3. On this basis, the compounds were added, and the enhancement of the signal pathway of T cell activation by the inhibitory effect of the compounds on the interaction between PD-1 and PD-L1 was evaluated by readings of reporter gene responses. The specific experimental process was as follows:
2. 20 μL of Raji-PD-L1 cell suspension was added to each well with 5*10^4 cells for each well, and was incubated in an incubator for 20 min;
3. 20 μL of Jurkat/NF-κb-luc/PD-1 cell suspension was added to each well with 5*10^4 cells for each well, and well mixed, and 6 hrs later, Bright-glo (Promega, E2620) was applied and plates were read on Envision;
4. the reading of each well treated with the compound was compared with the reading of each well treated with DMSO to obtain the activation fold of the compound; and
5. EC50 values of compounds and positive compounds of the examples of the present invention were determined by non-linear regression analysis of activation folds at different compound concentrations.

[2] = target: interaction between PD-1 and PD-L1 (Homo sapiens (Human), UniProt Q9NZQ7); test: PD1-PDL1 HTRF binding activity test (Cisbio PD-1/PD-L1 binding assay kit); conditions: read-out: PD1-PDL1 HTRF Binding Activity IC50
Chain of interaction between PD-1 and PD-L1 (Q9NZQ7 19-238): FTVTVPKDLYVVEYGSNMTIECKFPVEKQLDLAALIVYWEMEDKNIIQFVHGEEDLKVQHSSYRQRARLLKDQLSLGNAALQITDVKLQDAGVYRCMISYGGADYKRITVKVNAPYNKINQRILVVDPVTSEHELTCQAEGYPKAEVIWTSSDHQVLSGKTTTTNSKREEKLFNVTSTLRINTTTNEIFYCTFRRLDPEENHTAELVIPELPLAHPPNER
Description: A. PD1-PDL1 HTRF Binding Activity Test
The effect of compounds and positive compounds of the examples of the present invention on the interaction between PD-1 and PD-L1 was determined by the PD-1/PD-L1 binding assay kit from Cisbio (#64ICP01PEG or 64ICP01PEH). The detailed experimental process was as follows:
1. Pre-diluted compound solution, 4 μL of Tag1-PD-L1 and 4 μL of Tag2-PD1 were added to each well of a 384-well plate;
3. After incubated for 2 hrs at room temperature or overnight at 4° C., plates were read on Envision of Pelkin Elmer; and readings at 665 nm and 620 nm were recorded, and the ratio of the two readings was taken as a reading for each well;
4. The reading of each well after compound treatment was compared with the reading of DMSO treated wells to obtain the percent inhibition of the compound; and
5. IC50 values of compounds and positive compounds of the examples of the present invention were determined by non-linear regression analysis of percent inhibition at different compound concentrations.

SMILES	EC50 [1]	IC50 [2]
CC(=O)NCCNCc1cnc(C(=O)Nc2cccc(-c3cccc(NC(=O)c4cc(C)c(CNCCNC(C)=O)cn4)c3C)c2C)cc1C [Example 16, N,N′-(2,2′-dimethyl-[1,1′-biphenyl]-3,3′-diyl)bis(5-(((2-acetamidoethyl)amino)methyl)-4-methylpicolinamide)]	310 nM	0.14 nM
Cc1cc(C(=O)Nc2cccc(-c3cccc(NC(=O)c4cc(C)c(CN5CCNC(=O)C5)cn4)c3C)c2C)ncc1CN1CCNC(=O)C1 [Example 17, N,N′-(2,2′-dimethyl-[1,1′-biphenyl]-3,3′-diyl)bis(4-methyl-5-((3-oxopiperazin-1-yl)methyl)picolinamide)]	> 10000 nM	1.5 nM
Cc1cc(C(=O)Nc2cccc(-c3cccc(NC(=O)c4cc(C)c(CN[C@@H]5CCOC[C@H]5O)cn4)c3C)c2C)ncc1CN[C@@H]1CCOC[C@H]1O [Example 18, N,N′-(2,2′-dimethyl-[1,1′-biphenyl]-3,3′-diyl)bis(5-((((3S,4R)-3-hydroxytetrahydro-2H-pyran-4-yl)amino)methyl)-4-methylpicolinamide)]	209 nM	0.34 nM
Cc1cc(C(=O)Nc2cccc(-c3cccc(NC(=O)c4cc(C)c(CN[C@H]5CC[C@H](O)CC5)cn4)c3C)c2C)ncc1CN[C@H]1CC[C@H](O)CC1 [Example 19, N,N′-(2,2′-dimethyl-[1,1′-biphenyl]-3,3′-diyl)bis(5-((((1r,4r)-4-hydroxycyclohexyl)amino)methyl)-4-methylpicolinamide)]	86 nM	0.15 nM
COC(=O)[C@@H](CO)NCc1cnc(C(=O)Nc2cccc(-c3cccc(NC(=O)c4cc(C)c(CN[C@H](CO)C(=O)OC)cn4)c3C)c2C)cc1C [Example 20, dimethyl 2,2′-((((((2,2′-dimethyl-[1,1′-biphenyl]-3,3′-diyl)bis (azanediyl))bis(carbonyl))bis(4-methylpyridine-6,3-diyl))bis(methylene))bis(azanediyl))(2R,2′R)-bis(3-hydroxypropanoate)]	4220 nM	0.36 nM
Cc1cc(C(=O)Nc2cccc(-c3cccc(NC(=O)c4cc(C)c(CN[C@H](CO)C(=O)O)cn4)c3C)c2C)ncc1CN[C@H](CO)C(=O)O [Example 21, (2R,2′R)-2,2′-((((((2,2′-dimethyl-[1,1′-biphenyl]-3,3′-diyl)bis(azanediyl))bis(carbonyl))bis(4-methylpyridine-6,3-diyl))bis(methylene))bis(azanediyl)) bis(3-hydroxypropaitoic acid)]	83 nM	0.66 nM
Cc1cc(C(=O)Nc2cccc(-c3cccc(NC(=O)c4cc(C)c(CNCC(=O)O)cn4)c3C)c2C)ncc1CNCC(=O)O [Example 25]	124 nM	0.37 nM
COC(=O)[C@H]1CCCCN1Cc1cnc(C(=O)Nc2cccc(-c3cccc(NC(=O)c4cc(C)c(CN5CCCC[C@@H]5C(=O)OC)cn4)c3C)c2C)cc1C [Example 28, dimethyl 1,1′-(((((2,2′-dimethyl-[1,1′-biphenyl]-3,3′-diyl)bis (azanediyl))bis(carbonyl))bis (4-methylpyridine-6,3-diyl))bis(methylene))(2R,2′R)-bis (piperidine-2-carboxylate)]	> 10000 nM	9.55 nM
Cc1cc(C(=O)Nc2cccc(-c3cccc(NC(=O)c4cc(C)c(CN5CCCC[C@@H]5C(=O)O)cn4)c3C)c2C)ncc1CN1CCCC[C@@H]1C(=O)O [Example 29, (2R,2′R)-1,1′-(((((2,2′-dimethyl-[1,1′-biphenyl]-3,3′-diyl)bis (azanediyl))bis(carbonyl))bis (4-methylpyridine-6,3-diyl))bis(methylene))bis(piperidine-2-carboxylic acid)]	1460 nM	0.36 nM
COc1cc(C(=O)Nc2cccc(-c3cccc(NC(=O)c4cc(OC)c(CN5CCOCC5)cn4)c3C)c2C)ncc1CN1CCOCC1 [Example 31, N,N′-(2,2′-dimethyl-[1,1′-biphenyl]-3,3′-diyl)bis(4-methoxy-5-(morpholinomethyl)picolinamide)]	2080 nM	1 nM
CNCc1cnc(C(=O)Nc2cccc(-c3cccc(NC(=O)c4cc(OC)c(CNC)cn4)c3C)c2C)cc1OC [Example 32, N,N'-(2,2′-dimethyl-[1,1′-biphenyl]-3,3′-diyl)bis(4-methoxy-5-((methylamino)methyl)picolinamide)]	53 nM	0.27 nM
COCCNCc1cnc(C(=O)Nc2cccc(-c3cccc(NC(=O)c4cc(OC)c(CNCCOC)cn4)c3C)c2C)cc1OC [Example 34, N,N'-(2,2′-dimethyl-[1,1′-biphenyl]-3,3′-diyl)bis(4-methoxy-5-(((2-methoxyethyl)amino)methyl)picolinamide)]	111 nM	0.21 nM

More lines, in order of falling EC50 [1], values ahead:

EC50 [1]	IC50 [2]	SMILES
5170 nM	0.28 nM	COC(=O)[C@H](CO)NCc1cnc(C(=O)Nc2cccc(-c3cccc(NC(=O)c4cc(C)c(CN[C@@H](CO)C(=O)OC)cn4)c3C)c2C)cc1C [Example 22, dimethyl 2,2′-((((((2,2′-dimethyl-[1,1′-biphenyl]-3,3′-diyl)bis(azanediyl))bis(carbonyl))bis(4-methylpyridine-6,3-diyl))bis(methylene))bis(azanediyl)) (2S,2′S)-bis(3-hydroxypropanoate)]
1050 nM	3.2 nM	COC(=O)CNCc1cnc(C(=O)Nc2cccc(-c3cccc(NC(=O)c4cc(C)c(CNCC(=O)OC)cn4)c3C)c2C)cc1C [Example 24, dimethyl 2,2′-((((((2,2′-dimethyl-[1,1′-biphenyl]-3,3′-diyl)bis(azanediyl))bis(carbonyl))bis(4-methylpyridine-6,3-diyl))bis (methylene))bis(azanediyl))diacetate]
448 nM	1.24 nM	Cc1cc(C(=O)Nc2cccc(-c3cccc(NC(=O)c4cc(C)c(CN[C@H](CCO)C(=O)O)cn4)c3C)c2C)ncc1CN[C@H](CCO)C(=O)O [Example 30, (2R,2′R)-2,2′-((((((2,2′-dimethyl-[1,1′-biphenyl]-3,3′-diyl)bis(azanediyl))bis(carbonyl))bis(4-methylpyridine-6,3-diyl))bis(methylene))bis(azanediyl)) bis(4-hydroxybutanoic acid)]
257 nM	1.11 nM	COc1cc(C(=O)Nc2cccc(-c3cccc(NC(=O)c4cc(OC)c(CNCCOC(F)F)cn4)c3C)c2C)ncc1CNCCOC(F)F [Example 35, N,N'-(2,2′-dimethyl-[1,1′-biphenyl]-3,3′-diyl)bis(5-(((2-(difluoromethoxy)ethyl)amino)methyl)-4-methoxypicolinamide)]
249 nM	0.31 nM	Cc1cc(C(=O)Nc2cccc(-c3cccc(NC(=O)c4cc(C)c(CN[C@@H](CO)C(=O)O)cn4)c3C)c2C)ncc1CN[C@@H](CO)C(=O)O [Example 23, (2S,2′S)-2,2′-((((((2,2′-dimethyl-[1,1′-biphenyl]3,3′-diyl)bis(azanediyl))bis(carbonyl))bis(4-methylpyridine-6,3-diyl))bis(methylene))bis(azanediyl))bis (3-hydroxypropanoic acid)]
109 nM	0.65 nM	COc1cc(C(=O)Nc2cccc(-c3cccc(NC(=O)c4cc(OC)c(CNC[C@H](O)CO)cn4)c3C)c2C)ncc1CNC[C@H](O)CO [Example 33, N,N'-(2,2′-dimethyl-[1,1′-biphenyl]-3,3′-diyl)(5((((S)-2,3-dihydroxypropyl)amino)methyl)-4-methoxypicolinamide)]
